Test results: US6248586A, “Antisense modulation of PKA catalytic subunit C-alpha expression” (Isis Pharmaceuticals, Inc., priority 1999, dated 2001)

Test system: human PKA catalytic subunit C-alpha mRNA
Experiment: Inhibition of PKA catalytic subunit C-alpha mRNA levels in oligonucleotide-treated cells, quantitative real-time PCR
Assay type: cell-based
Design: concentration or dose not given beside the values
Experimental: when cells reached 80% confluency, they were treated with oligonucleotide. For cells grown in 96-well plates, wells were washed once with 200 μL. OPTI-MEM™-1 reduced-serum medium (Gibco BRL) and then treated with 130 μL of OPTI-MEM™-1 containing 3.75 μg/mL LIPOFECTIN™ (Gibco BRL) and the desired concentration of oligonucleotide. After 4-7 hours of treatment, the medium was replaced with fresh medium. Cells were harvested 16-24 hours after oligonucleotide treatment.
Poly(A)+ mRNA was isolated according to Miura et al., Clin. Chem., 1996, 42, 1758-1764. Other methods for poly(A)+ mRNA isolation are taught in, for example, Ausubel, F. M. et al., Current Protocols in Molecular Biology, Volume 1, pp. 4.5.1-4.5.3, John Wiley & Sons, Inc., 1993. Briefly, for cells grown on 96-well plates, growth medium was removed from the cells and each well was washed with 200 μL cold PBS. 60 μL lysis buffer (10 mM Tris-HCl, pH 7.6, 1 mM EDTA, 0.5 M NaCl, 0.5% NP-40, 20 mM vanadyl-ribonucleoside complex) was added to each well, the plate was gently agitated and then incubated at room temperature for five minutes. 55 μL of lysate was transferred to Oligo d(T) coated 96-well plates (AGCT Inc., Irvine Calif.). Plates were incubated for 60 minutes at room temperature, washed 3 times with 200 μL of wash buffer (10 mM Tris-HCl pH 7.6, 1 mM EDTA, 0.3 M NaCl). After the final wash, the plate was blotted on paper towels to remove excess wash buffer and then air-dried for 5 minutes. 60 μL of elution buffer (5 mM Tris-HCl pH 7.6), preheated to 70° C. was added to each well, the plate was incubated on a 90° C. hot plate for 5 minutes, and the eluate was then transferred to a fresh 96-well plate.
Quantitat:ion of PKA catalytic subunit C-alpha mRNA levels was determined by real-time quantitative PCR using the ABI PRISM™ […] Sequence Detection System (PE-Applied Biosystems, Foster City, Calif.) according to manufacturer's instructions. This is a closed-tube, non-gel-based, fluorescence detection system which allows high-throughput quantitation of polymerase chain reaction (PCR) products in real-time. As opposed to standard PCR, in which amplification products are quantitated after the PCR is completed, products in real-time quantitative PCR are quantitated as they accumulate. This is accomplished by including in the PCR reaction an oligonucleotide probe that anneals specifically between the forward and reverse PCR primers, and contains two fluorescent dyes. A reporter dye (e.g., JOE, FAM, or VIC, obtained from either Operon Technologies Inc., Alameda, Calif. or PE-Applied Biosystems, Foster City, Calif.) is attached to the 5' end of the probe and a quencher dye (e.g., TAMRA, obtained from either Operon Technologies Inc., Alameda, Calif. or PE-Applied Biosystems, Foster City, Calif.) is attached to the 3' end of the probe. When the probe and dyes are intact, reporter dye emission is quenched by the proximity of the 3' quencher dye. During amplification, annealing of the probe to the target sequence creates a substrate that can be cleaved by the 5'-exonuclease activity of Taq polymerase. […] With each cycle, additional reporter dye molecules are cleaved from their respective probes, and the fluorescence intensity is monitored at regular intervals by laser optics built into the ABI PRISM™ 7700 Sequence Detection System. In each assay, a series of parallel reactions containing serial dilutions of mRNA from untreated control samples generates a standard curve that is used to quantitate the percent inhibition after antisense oligonucleotide treatment of test samples.
PCR reagents were obtained from PE-Applied Biosystems, Foster City, Calif. […]

[1] = Table 1, phosphorothioate oligodeoxynucleotides, averages from two experiments
[2] = Table 2, chimeric phosphorothioate 2'-MOE gapmers, averaged from two experiments

Substance | % Inhibition of PKA catalytic subunit C-alpha mRNA levels [1] [%] | % Inhibition of PKA catalytic subunit C-alpha mRNA levels [2] [%]
102534 (antisense TTGGCGCTTCGTTCATTTGC; chemistry not given here) [compound 102534] | 39 | 
102450 (antisense GCGTTGCCCATCGCGGCGGC; chemistry not given here) [compound 102450] | 64 | 
102636 (antisense GGCGGCGTTGCCCATCGCGG; chemistry not given here) [compound 102636] |  | 41
102518 (antisense AAACCACTTGTGGTTCTTGA; chemistry not given here) [compound 102518] | 34 | 
102486 (antisense CTTCTGTTTGTCGAGGATCT; chemistry not given here) [compound 102486] | 51 | 
102502 (antisense TAGATGAGATCCAGCGAGTG; chemistry not given here) [compound 102502] | 28 | 
102568 (antisense CAGGCAGCCCCTCCCCAGCA; chemistry not given here) [compound 102568] | 49 | 
102558 (antisense TGCAGGGATGCCCTCCCCAC; chemistry not given here) [compound 102558] | 65 | 
102444 (antisense CCCATCGCGGCGGCGGCGGC; chemistry not given here) [compound 102444] | 47 | 
102579 (antisense TGGCTCCCCAGCGGCTCCCC; chemistry not given here) [compound 102579] | 36 | 
102649 (antisense GGCGGCGGCGGCGTTGCCCA; chemistry not given here) [compound 102649] |  | 85
102696 (antisense AAACCACTTGTGGTTCTTGA; chemistry not given here) [compound 102696] |  | 71
102720 (antisense GCTTCTCTTTAAAATGGATT; chemistry not given here) [compound 102720] |  | 56
102438 (antisense GCGGCGGGTGCTGGCTGCGG; chemistry not given here) [compound 102438] | 15 | 
102547 (antisense ACCCTCGCAGGATTGGCAGA; chemistry not given here) [compound 102547] | 53 | 
102653 (antisense ATTCTTTCACGCTCTCCTGC; chemistry not given here) [compound 102653] |  | 55
102750 (antisense TAGTTTTCAAATATGTTTAC; chemistry not given here) [compound 102750] |  | 66
102609 (antisense CATCGCGGCGGCGGCGGCCG; chemistry not given here) [compound 102609] |  | 66
102716 (antisense AAGCAACCCACTGAACATGT; chemistry not given here) [compound 102716] |  | 63
102672 (antisense GTTGTCCTTGAAGGAGAACT; chemistry not given here) [compound 102672] |  | 28
102462 (antisense GCGGCGGCGTTGCCCATCGC; chemistry not given here) [compound 102462] | 67 | 

Substance | % Inhibition of PKA catalytic subunit C-alpha mRNA levels [1] [%] | % Inhibition of PKA catalytic subunit C-alpha mRNA levels [2] [%]
102684 (antisense GCGGCCCTTCACGCGCTTGG; chemistry not given here) [compound 102684] |  | 63
102514 (antisense TCCTTCAAGTCAGAGCTGAA; chemistry not given here) [compound 102514] | 44 | 
102736 (antisense CCTTGAACCCCGGGCCGTGG; chemistry not given here) [compound 102736] |  | 65
102526 (antisense GGCATGCCCCTAAAACTCAG; chemistry not given here) [compound 102526] | 45 | 
102454 (antisense CGGCGTTGCCCATCGCGGCG; chemistry not given here) [compound 102454] | 53 | 
102624 (antisense GTTGCCCATCGCGGCGGCGG; chemistry not given here) [compound 102624] |  | 81
102448 (antisense GTTGCCCATCGCGGCGGCGG; chemistry not given here) [compound 102448] | 47 | 
102573 (antisense AGCACAAATGAGAAAGTGGG; chemistry not given here) [compound 102573] | 7 | 
102727 (antisense CGCTGCTGGGAGGAAAGACT; chemistry not given here) [compound 102727] |  | 60
102747 (antisense CACACAGGTTGAATCGCCCC; chemistry not given here) [compound 102747] |  | 81
102470 (antisense GGCGGCGGCGGCGTTGCCCA; chemistry not given here) [compound 102470] | 49 | 
102506 (antisense GCGGCCCTTCACGCGCTTGG; chemistry not given here) [compound 102506] | 0 | 
102440 (antisense TCGCGGCGGCGGCGGCCGGG; chemistry not given here) [compound 102440] | 19 | 
102660 (antisense CCAGCATCACCCGCCCGAAG; chemistry not given here) [compound 102660] |  | 82
102744 (antisense TGGCTCCCCAGCGGCTCCCC; chemistry not given here) [compound 102744] |  | 77
102703 (antisense GGCATGCCCCTAAAACTCAG; chemistry not given here) [compound 102703] |  | 26
102680 (antisense TAGATGAGATCCAGCGAGTG; chemistry not given here) [compound 102680] |  | 33
102619 (antisense TGCCCATCGCGGCGGCGGCG; chemistry not given here) [compound 102619] |  | 70
102442 (antisense CATCGCGGCGGCGGCGGCCG; chemistry not given here) [compound 102442] | 49 | 
102724 (antisense ACCCTCGCAGGATTGGCAGA; chemistry not given here) [compound 102724] |  | 55
102614 (antisense CCCATCGCGGCGGCGGCGGC; chemistry not given here) [compound 102614] |  | 77
